{"source": "patent US6284910A", "about": "“Farnesyl pyrophosphate analogs” (University of Kentucky Research Foundation, priority 1999, dated 2001)", "key": {"GGTase I": {"tested_on": "GGTase I", "assay": "Transfer of [^3 H]AGPP by GGTase I to H-Ras-CVLL", "type": "biochemical"}, "Xenopus laevis oocytes": {"tested_on": "Xenopus laevis oocytes", "assay": "Xenopus laevis oocyte maturation assay (GVBD) with oncogenic H-Ras in mevinolin-treated oocytes", "type": "cell-based", "excerpt": "Recently, a novel methodology involving the microinjection of known amounts of Ras into Xenopus oocytes has been described (see references 24, 45, infra), thereby permitting a quantitative structure-function analysis of H-Ras farnesyl-group for signal transduction in vivo. The approach makes use of enzymatic methods to attach structurally related farnesyl analogs onto the prenylation site of H-Ras combined with microinjection procedures to study their in vivo function. Oocytes are naturally arrested at the G2-M boundary of the first meiotic cell division. (See reference 80, infra). When microinjected with oncogenic H-Ras, oocytes reenter the cell cycle, which is monitored by germinal vesicle breakdown (GVBD) by the appearance of a white spot in the animal hemisphere. GVBD is accompanied by activation of the mitogen-activated protein kinase (MAPK) cascade. (See 81, 82, infra). […] (See references 24, 45, infra). These biochemical effects are strictly dependent on in vivo farnesylation of the injected H-Ras protein since mutation of the CaaX prenylation motif, blocking isoprenoid biosynthesis, and inhibition of FTase in oocytes all suppress these activities. (See references 83-85, infra). Thus, the system provides a method to study the in vivo role of prenylation by analyzing the ability of FPP analogues to rescue H-Ras biological functions in isoprenoid-depleted oocytes. […] Oocytes were isolated from X. laevis females and allowed to recover overnight. (See 24, 45, infra)."}, "squalene synthase": {"target": "T1, squalene synthase (Bos taurus, UniProt Q32KR6)", "T1 construct": "squalene synthase activity present in bovine brain microsome fractions; from tissue; host or cells: bovine brain microsomes (crude)", "T1 sequence (Q32KR6 1-417)": "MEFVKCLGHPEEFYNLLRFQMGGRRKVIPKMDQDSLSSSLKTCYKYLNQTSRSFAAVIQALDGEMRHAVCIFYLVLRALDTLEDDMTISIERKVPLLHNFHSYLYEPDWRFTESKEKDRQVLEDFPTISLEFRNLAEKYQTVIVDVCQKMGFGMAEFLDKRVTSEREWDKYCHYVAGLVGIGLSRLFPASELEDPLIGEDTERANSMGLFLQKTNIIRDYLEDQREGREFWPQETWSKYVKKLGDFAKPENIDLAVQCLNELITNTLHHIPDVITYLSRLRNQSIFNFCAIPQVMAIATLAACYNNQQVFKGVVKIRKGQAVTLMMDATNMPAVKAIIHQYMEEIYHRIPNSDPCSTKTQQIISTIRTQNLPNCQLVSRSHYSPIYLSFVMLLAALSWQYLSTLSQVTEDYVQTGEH", "assay": "Conversion of [^3 H]AGPP to organic soluble products by squalene synthase", "type": "biochemical, bovine", "conditions": "in vitro; listed as [^3 H]AGPP", "protocol": "Assay for Squalene Synthase Activity--Initial rates of squalene synthase activity present in bovine brain microsome fractions were assayed as previously described (19) with minor modifications. […] […] Assay mixtures were incubated for 30 min at 37° C., and the reactions terminated by the addition of 50 μl of 40% (wt/vol) KOH and then 100 μl of 95% ethanol. The resulting mixtures were incubated at 60° C. for 2 h and then cooled to room temperature. Authentic carrier squalene (20 μg) was added to each reaction tube, which were then extracted three times with petroleum ether. The lipid extracts were pooled, washed with water three times, and evaporated under a stream of N2. The lipid residue was redissolved in 100 μl CHCl3 /CH3 OH (2:1 vol/vol) and an aliquot (30 μl) was taken to determine the amount of labeled lipid formed by scintillation spectrometry. The remaining sample was analyzed on Silica gel G 60 TLC plates by developing with hexane (33). In all analyses the squalene standard was located by anisaldehyde spray reagent (34), and radioactive zones were located with a Bioscan Imaging System 200-IBM.\nSome of the previously characterized FTase inhibitors, particularly those competitive for FPP binding, have been described as inhibitors of squalene synthase, an enzyme that utilizes FPP and is an important secondary regulatory protein in the cholesterol biosynthetic pathway (38)."}, "recombinant GGTase I": {"target": "T2, recombinant GGTase I (Rattus norvegicus, UniProt P53610+Q04631)", "T2 construct": "6xHis (N); made in house; host or cells: Sf9 insect cells (baculovirus)", "assay": "Inhibition of CAAX GGTase I transfer of [^3 H]geranylgeranyl from [^3 H]GGPP to H-Ras-CVLL", "type": "biochemical", "procedure": "The assay mixtures contained (in a final volume of 25 μl) various components as described in \"Experimental Procedures\". After incubation for 15 min at 37° C., the amount of [^3 H]prenyl group transferred to the appropriate protein substrate [H-Ras (CVLS) for FTase and H-Ras (CVLL) for CAAX GGTase] was measured by precipitation with ethanol-HCl. The assays contained 10 ng recombinant rat FTase, 5 μM H-Ras, and 0.6 μM [^3 H]FPP (33,000 dpm/pmol) or 100 ng recombinant rat CAAX GGTase, 5 μM H-Ras CVLL, and 1 μM [^3 H]GGPP (33,000 dpm/pmol) and the indicated concentration of unlabeled AGPP. […] Each value is the average of duplicate incubations and is representative of two separate experiments.\nUnless otherwise stated, each reaction contained the following components in a final volume of 25 μl: 50 mM Tris-HCl (pH 7.4), 5 mM dithiothreitol, 20 μM Zwittergent (3-14), 1 μM [^3 H]GGPP (33,000 dpm/pmol; American Radiochemical Co.), 5 μM p21^H-ras CVLL, 5 μM ZnCl2, 5 mM MgCl2, 100 ng recombinant CAAX GGTase-1, and the indicated amount of unlabeled AGPP. Following incubation at 37° C. for 15 min, the amount of [^3 H]geranylgeranyl transferred was measured by ethanol-HCl precipitation followed by filtration on glass fiber filters. A blank value was determined in parallel incubation mixtures containing no enzyme and was subtracted from each reaction.\nThe assays contained 10 ng recombinant rat FTase, 5 μM H-Ras, and 0.6 μM [^3 H]FPP (33,000 dpm/pmol) or 100 ng recombinant rat CAAX GGTase, 5 μM H-Ras CVLL, and 1 μM [^3 H]GGPP (33,000 dpm/pmol) and the indicated concentration of unlabeled AGPP."}, "FTase": {"target": "FTase (Rattus norvegicus, UniProt Q02293+Q04631)", "assay": "Continuous fluorescence assay: transfer of FPP and analogs to N-dansyl-GCVLS by FTase", "type": "biochemical", "conditions": "excitation 340 nm, 505 nm", "excerpt": "FIG. 8. Progress Curves for Transfer of FPP and Analog Pyrophosphates to Dansyl-GCVLS by FTase. The reaction is monitored for fluorescence intensity at 505 nm with excitation at 340 nm. (a) FPP, (b) AGPP, (c) 8-(pentafluoroaniline)geranyl pyrophosphate, (d) blank.\nContinuous Fluorescence Assay for Analog Transfer: An important requirement for these studies is the development of a rapid technique for evaluating whether FPP analogs that are efficiently and appropriately transferred to target substrates by FTase. The analogs were evaluated for their ability to be transferred by FTase to the pentapeptide N-dansyl-GCVLS in a continuous fluorescence assay. (See references 78, 79, infra). There is a time dependent increase in the fluorescence of the dansyl group due to the local increase in hydrophobicity as the adjacent cysteine residue is isoprenylated. […] (FIG. 8)."}}, "note": "pIC50: −log10 of the molar value. “Also recorded” adds a separate entry of the source.", "data": [{"smiles": "C/C(=C\\COP(=O)(O)OP(=O)(O)O)CC/C=C(\\C)CNc1ccccc1", "note": "[AGPP, (E,E)-8-Aniline-3,7-dimethyl-2,6-octadiene pyrophosphate]", "values": [{"measurement": "transfer by GGTase I, in words", "setting": "GGTase I", "value": "transferred by GGTase I to H-Ras-CVLL with a low efficiency"}, {"measurement": "additional time necessary to achieve 50% maturation versus FPP", "setting": "Xenopus laevis oocytes; H-Ras and AGPP, mevinolin-treated oocytes, longer than for FPP", "value": "2 to 4", "unit": "h"}, {"measurement": "rescue of oncogenic H-Ras biological activity (oocyte maturation)", "setting": "Xenopus laevis oocytes; co-microinjected with oncogenic H-Ras, 50 μM mevinolin-treated oocytes", "value": "rescues the biological activity of oncogenic H-Ras in isoprenoid depleted oocytes with delayed maturation kinetics relative to FPP; also recorded: rescues the ability of H-Ras to induce oocyte maturation in mevinolin-treated cells"}, {"measurement": "effect when given without H-Ras", "setting": "Xenopus laevis oocytes; compound alone", "value": "neither FPP nor AGPP alone displayed any biological effect"}, {"measurement": "conversion to organic soluble products", "setting": "squalene synthase", "value": "showed no activity; also recorded: failed to detect any conversion"}, {"measurement": "pIC50", "setting": "recombinant GGTase I; 1 μM [^3 H]GGPP, 5 μM H-Ras CVLL, 37° C., 15 min", "value": 4.51}, {"measurement": "GGTase I activity remaining", "setting": "recombinant GGTase I; AGPP concentrations of greater than 100 μM, 15 min", "value": "approximately 20%"}, {"measurement": "selectivity: better inhibitor of FTase than GGTase I", "setting": "recombinant GGTase I; FTase vs GGTase I", "value": 50, "unit": "fold"}, {"measurement": "time-dependent increase in dansyl fluorescence / transfer to dansyl peptide, in words", "setting": "FTase", "value": "transferred efficiently"}, {"measurement": "time-dependent increase in dansyl fluorescence / transfer to dansyl peptide, in words", "setting": "FTase; listed as 1", "value": "Time-dependent increases in the fluorescence of the dansyl group"}]}]}
